Earlier results as cited in patent US20140316333A1, “DISSOLVING SOLID SOLUTION PERFORATOR PATCH FOR MIGRAINE TREATMENT” (priority 2011, published 2014).

Conditions: oral dosage

For `CN1C[C@H](C(=O)N[C@]2(C)O[C@@]3(O)[C@@H]4CCCN4C(=O)[C@H](Cc4ccccc4)N3C2=O)C[C@@H]2c3cccc4[nH]cc(c34)C[C@H]21` [DHE, dihydroergotamine], the “time to have efficacy for reducing migraine headache” value is listed as 2 to 3 h and the “active unchanged drug that reaches the blood stream” value (about 20-30 mg, estimated) is listed as 2-10%.
